pIC50: −log10 of the molar value.

For experiment [1], the target named is Tryptase (Homo sapiens, UniProt Q9BZJ3+Q15661+Q9NRR2). Nature of the experiment: Inhibitory activity was measured against human mast cell tryptase. The format is protein assay.
Experiment [2] addresses Prothrombin (Homo sapiens, UniProt P00734). Nature of the experiment: Inhibitory activity was measured against thrombin.
For experiment [3], the target named is T1, Neutrophil elastase (Homo sapiens, UniProt P08246).
T1 sequence (P08246 whole entry): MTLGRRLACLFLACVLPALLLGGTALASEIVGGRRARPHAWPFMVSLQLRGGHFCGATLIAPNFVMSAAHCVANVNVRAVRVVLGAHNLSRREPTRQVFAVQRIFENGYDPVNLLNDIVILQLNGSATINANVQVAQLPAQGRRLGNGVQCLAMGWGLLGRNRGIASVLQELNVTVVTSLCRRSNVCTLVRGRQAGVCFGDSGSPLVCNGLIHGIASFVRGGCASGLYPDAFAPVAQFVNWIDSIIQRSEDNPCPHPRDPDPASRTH
Nature of the experiment: Inhibitory activity was measured against human leukocyte elastase.

Experiment [4] deals with Urokinase-type plasminogen activator (Homo sapiens, UniProt P00749). Nature of the experiment: Inhibitory activity was measured against urokinase.
Experiment [5] concerns the target Plasminogen (Homo sapiens, UniProt P00747). Nature of the experiment: Inhibitory activity was measured against plasmin.
Experiment [6] has as its target Coagulation factor X (Homo sapiens, UniProt P00742). Nature of the experiment: Inhibitory activity was measured against Coagulation factor X.

Sequence of Plasminogen (P00747 97-580 limits assumed): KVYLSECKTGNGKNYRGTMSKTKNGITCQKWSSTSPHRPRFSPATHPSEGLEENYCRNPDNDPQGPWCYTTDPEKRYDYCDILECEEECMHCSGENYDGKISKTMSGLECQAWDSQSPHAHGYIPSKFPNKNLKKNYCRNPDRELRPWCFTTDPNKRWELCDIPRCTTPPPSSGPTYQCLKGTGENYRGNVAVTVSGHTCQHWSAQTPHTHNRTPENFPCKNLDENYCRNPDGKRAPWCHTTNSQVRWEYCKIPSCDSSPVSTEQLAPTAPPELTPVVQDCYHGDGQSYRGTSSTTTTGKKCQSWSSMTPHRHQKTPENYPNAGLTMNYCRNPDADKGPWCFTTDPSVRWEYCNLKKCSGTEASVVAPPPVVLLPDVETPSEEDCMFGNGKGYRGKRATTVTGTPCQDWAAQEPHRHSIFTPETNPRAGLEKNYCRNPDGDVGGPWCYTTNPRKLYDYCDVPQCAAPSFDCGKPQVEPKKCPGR
Sequence of Plasminogen (P00747 581-810 limits assumed): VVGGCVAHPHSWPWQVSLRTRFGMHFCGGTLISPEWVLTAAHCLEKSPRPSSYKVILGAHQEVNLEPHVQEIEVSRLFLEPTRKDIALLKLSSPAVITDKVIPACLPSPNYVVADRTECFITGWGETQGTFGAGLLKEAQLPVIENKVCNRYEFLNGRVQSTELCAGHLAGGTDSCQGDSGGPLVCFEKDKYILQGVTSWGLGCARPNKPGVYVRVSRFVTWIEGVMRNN
Sequence of Coagulation factor X (P00742 41-179 limits assumed): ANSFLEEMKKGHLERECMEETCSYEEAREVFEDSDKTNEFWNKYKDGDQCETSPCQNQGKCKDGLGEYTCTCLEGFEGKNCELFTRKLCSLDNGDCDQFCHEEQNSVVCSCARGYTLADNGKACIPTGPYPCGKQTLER
Sequence of Coagulation factor X (P00742 235-488 limits assumed): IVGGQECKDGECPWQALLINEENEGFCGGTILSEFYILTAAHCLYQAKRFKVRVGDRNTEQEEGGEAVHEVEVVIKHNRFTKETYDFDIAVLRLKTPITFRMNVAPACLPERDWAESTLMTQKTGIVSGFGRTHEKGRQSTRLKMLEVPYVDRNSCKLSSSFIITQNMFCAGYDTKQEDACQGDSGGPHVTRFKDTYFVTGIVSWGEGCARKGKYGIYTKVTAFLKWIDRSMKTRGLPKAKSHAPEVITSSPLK

As to `O=C(CCCCCNC(=O)OCc1ccccc1)OCN1C(=O)c2ccccc2S1(=O)=O`, in experiment [1], the half-inhibitory concentration (IC50) stood at 436 nM. This lies in the sub-micromolar range.

As to `O=C(NCc1ccc(C(=O)OCN2C(=O)c3ccccc3S2(=O)=O)cc1)Nc1ccccc1`, the IC50 in experiment [1] came out at 157 nM.

As to `O=C(NCCc1ccccc1)c1ccc(C(=O)OCN2C(=O)c3ccccc3S2(=O)=O)cc1`, in experiment [1], the IC50 was 679 nM. This IC50 lies about 4.3-fold higher than the previous one.

`O=C(CCCNC(=O)OCc1ccccc1)OCN1C(=O)c2ccccc2S1(=O)=O`: the IC50 in experiment [1] stood at 349 nM.

`O=C(Nc1ccc(C(=O)OCN2C(=O)c3ccccc3S2(=O)=O)cc1)OCc1ccccc1` returned a half-inhibitory concentration (IC50) in experiment [1] of 64.3 nM. Further, the pIC50 is under 4.48 in experiment [2] and 5.58 in experiment [3].

On to `O=C(OCN1C(=O)c2ccccc2S1(=O)=O)c1ccc(OCCOc2ccccc2)cc1`, for which the half-maximal inhibitory concentration (IC50) in experiment [1] is over 33000 nM.

Turning to `O=C(CCc1ccccc1)Nc1ccc(C(=O)OCN2C(=O)c3ccccc3S2(=O)=O)cc1`, in experiment [1], the IC50 was found to be 170 nM.

Take `O=C(Cc1ccccc1)NCc1ccc(C(=O)OCN2C(=O)c3ccccc3S2(=O)=O)cc1`: the IC50 in experiment [1] is 132 nM.

The molecule `O=C(CNC(=O)OCc1ccccc1)OCN1C(=O)c2ccccc2S1(=O)=O` displayed an IC50 in experiment [1] of 6940 nM. Against the preceding molecule, the IC50 is about 53-fold higher.

On to `O=C(NCc1ccccc1)Nc1ccc(C(=O)OCN2C(=O)c3ccccc3S2(=O)=O)cc1`, for which, in experiment [1], the IC50 came to 950 nM. This IC50 is about 7.3-fold lower than that of the molecule before.

Regarding `O=C(Nc1cccc(C(=O)OCN2C(=O)c3ccccc3S2(=O)=O)c1)OCc1ccccc1`, in experiment [1], the half-inhibitory concentration (IC50) is over 33000 nM.

The molecule `O=C(NCc1ccc(C(=O)OCN2C(=O)c3ccccc3S2(=O)=O)cc1)OCc1ccccc1` showed an IC50 in experiment [1] of 352 nM.

Consider `CC(C)(C)OC(=O)NCCCCCC(=O)OCN1C(=O)c2ccccc2S1(=O)=O`, for which the concentration for half-maximal inhibition (IC50) in experiment [1] came out at 5370 nM.

In turn, `O=C(CCCCNC(=O)OCc1ccccc1)OCN1C(=O)c2ccccc2S1(=O)=O` came in with an IC50 in experiment [1] of 110 nM. Further, the negative logarithm of the IC50 (pIC50) in experiment [4] was under 4.48; in experiment [5], 4.48; in experiment [2], under 4.48; in experiment [6], under 4.48; in experiment [3] it was 5.84.

In turn, `CC(C)(C)OC(=O)N[C@@H](CCCCNC(=O)OCc1ccccc1)C(=O)OCN1C(=O)c2ccccc2S1(=O)=O` displayed a half-inhibitory concentration (IC50) in experiment [1] of 352 nM.

Molecule `O=C(CCNC(=O)OCc1ccccc1)OCN1C(=O)c2ccccc2S1(=O)=O` came in with an IC50 in experiment [1] of 854 nM. Also, the pIC50 is under 4.48 in experiment [4]; under 4.48 in experiment [5]; under 4.48 in experiment [2]; under 4.48 in experiment [6]; 5.65 in experiment [3].

In experiment [1], `CC(C)(C)OC(=O)N[C@H](CCCCNC(=O)OCc1ccccc1)C(=O)OCN1C(=O)c2ccccc2S1(=O)=O` came in with an IC50 of 12200 nM.

In experiment [1], `O=C(NCc1ccc(C(=O)OCN2C(=O)c3ccccc3S2(=O)=O)cc1)Oc1ccccc1` gave an IC50 of 630 nM.

As to `Nc1ccc(C(=O)OCN2C(=O)c3ccccc3S2(=O)=O)cc1`, in experiment [1], the IC50 was over 33000 nM.

For the molecule `O=C(CCNC(=O)OCc1ccccc1)NCCC(=O)OCN1C(=O)c2ccccc2S1(=O)=O`, the IC50 in experiment [1] was over 33000 nM.

A word on the IC50: it is the concentration that gives 50% inhibition. Lower therefore signals higher potency. In general, pIC50 refers to the IC50 on a negative log10 scale, so that one unit is a factor of ten. A low value points to a high IC50.

For the origin of these results see ChEMBL document CHEMBL1131519, “1,2-Benzisothiazol-3-one 1,1-dioxide inhibitors of human mast cell tryptase” (J Med Chem, 1998).
